# Test system: 699152-130-R-J1-PDC complex spheroid growth
# Assay: Anticancer human tumor 699152-130-R-J1-PDC patient-derived pancreatic carcinoma cell line growth inhibition [AhR]
# Conditions: for IC50: curve of first compound; for viability, T/C: stronger effect = lower value
# In short: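 Agents were dosed in half-log steps down from roughly clinical Cmax, or from 10 microM where Cmax was unknown, alone and with AhR antagonists. Read-out: percent test/control growth of tumor spheroids containing HUVEC and MSC stromal cells.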
# [1] = second compound 0.1 µM, first compound 0.0316 µM
# [2] = second compound 0.1 µM, first compound 0.1 µM
# [3] = second compound 0.1 µM, first compound 0.316 µM
# [4] = second compound 0.1 µM, first compound 1 µM
# [5] = second compound 0.1 µM, first compound 3.16 µM
# [6] = second compound 0.1 µM, first compound 10 µM
# [7] = second compound 0.316 µM, first compound 0.0316 µM
# [8] = second compound 0.316 µM, first compound 0.1 µM
# [9] = second compound 0.316 µM, first compound 0.316 µM
# [10] = second compound 0.316 µM, first compound 1 µM
# [11] = second compound 0.316 µM, first compound 3.16 µM
# [12] = second compound 0.316 µM, first compound 10 µM
# [13] = second compound 1 µM, first compound 0.0316 µM
# [14] = second compound 1 µM, first compound 0.1 µM
# [15] = second compound 1 µM, first compound 0.316 µM
# [16] = second compound 1 µM, first compound 1 µM
# [17] = second compound 1 µM, first compound 3.16 µM
# [18] = second compound 1 µM, first compound 10 µM
# [19] = second compound 3.16 µM, first compound 0.0316 µM
# [20] = second compound 3.16 µM, first compound 0.1 µM
# [21] = second compound 3.16 µM, first compound 0.316 µM
# [22] = second compound 3.16 µM, first compound 1 µM
# [23] = second compound 3.16 µM, first compound 3.16 µM
# [24] = second compound 3.16 µM, first compound 10 µM
# [25] = second compound 10 µM, first compound 0.0316 µM
# [26] = second compound 10 µM, first compound 0.1 µM
# [27] = second compound 10 µM, first compound 0.316 µM
# [28] = second compound 10 µM, first compound 1 µM
# [29] = second compound 10 µM, first compound 3.16 µM
# [30] = second compound 10 µM, first compound 10 µM
# 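Further: compound exposure lasted 7 days after spheroids had grown for 3 days.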
IC50 (second compound 0.1 µM),IC50 (second compound 0.316 µM),IC50 (second compound 1 µM),IC50 (second compound 3.16 µM),IC50 (second compound 10 µM),Structure (SMILES),"viability, T/C [1]","viability, T/C [2]","viability, T/C [3]","viability, T/C [4]","viability, T/C [5]","viability, T/C [6]","viability, T/C [7]","viability, T/C [8]","viability, T/C [9]","viability, T/C [10]","viability, T/C [11]","viability, T/C [12]","viability, T/C [13]","viability, T/C [14]","viability, T/C [15]",further results
7.66 µM,6.79 µM,7.2 µM,8.03 µM,> 10 µM,Nc1ccccc1NC(=O)c1ccc(CNC(=O)OCc2cccnc2)cc1 + Cc1ccccc1N=Nc1ccc(NC(=O)c2ccnn2C)c(C)c1,85.7%,97.6%,102%,111%,77.8%,41.6%,90.6%,93.8%,89.5%,90.7%,67.5%,41.1%,97.1%,95.3%,107%,"viability, T/C [16]: 97.4%; viability, T/C [17]: 76.6%; viability, T/C [18]: 39.4%; viability, T/C [19]: 93.2%; viability, T/C [20]: 93.3%; viability, T/C [21]: 104%; viability, T/C [22]: 112%; viability, T/C [23]: 73.2%; viability, T/C [24]: 44.5%; viability, T/C [25]: 115%; viability, T/C [26]: 116%; viability, T/C [27]: 109%; viability, T/C [28]: 102%; viability, T/C [29]: 91.8%; viability, T/C [30]: 58.2%"
> 10 µM,> 10 µM,> 10 µM,> 10 µM,> 10 µM,O=C(C=Cc1cccc(S(=O)(=O)Nc2ccccc2)c1)NO + Cc1ccccc1N=Nc1ccc(NC(=O)c2ccnn2C)c(C)c1,91.2%,109%,111%,110%,108%,97.8%,87.9%,99.4%,106%,114%,97.3%,95.4%,97.5%,118%,111%,"viability, T/C [16]: 116%; viability, T/C [17]: 101%; viability, T/C [18]: 96.2%; viability, T/C [19]: 103%; viability, T/C [20]: 102%; viability, T/C [21]: 107%; viability, T/C [22]: 115%; viability, T/C [23]: 103%; viability, T/C [24]: 81.5%; viability, T/C [25]: 109%; viability, T/C [26]: 114%; viability, T/C [27]: 116%; viability, T/C [28]: 122%; viability, T/C [29]: 97%; viability, T/C [30]: 85.2%"
> 10 µM,> 10 µM,> 10 µM,> 10 µM,> 10 µM,O=C(c1cc(Cc2n[nH]c(=O)c3ccccc23)ccc1F)N1CCN(C(=O)C2CC2)CC1 + Cc1ccccc1N=Nc1ccc(NC(=O)c2ccnn2C)c(C)c1,90.3%,92.8%,109%,101%,97.2%,78.5%,89.6%,84.2%,109%,90%,83.5%,85.2%,106%,105%,90.4%,"viability, T/C [16]: 93.8%; viability, T/C [17]: 88.6%; viability, T/C [18]: 85.5%; viability, T/C [19]: 114%; viability, T/C [20]: 99.3%; viability, T/C [21]: 104%; viability, T/C [22]: 94.1%; viability, T/C [23]: 81.1%; viability, T/C [24]: 83.1%; viability, T/C [25]: 123%; viability, T/C [26]: 121%; viability, T/C [27]: 109%; viability, T/C [28]: 89.3%; viability, T/C [29]: 94%; viability, T/C [30]: 85.7%"
